Drawing on ChEMBL document CHEMBL5036306 (J Med Chem, 2021), this text covers inhibition and Activity for two compounds.

Data set [1] has as its target T1, Protein deacetylase HDAC6 (Mus musculus) (UniProt Q9Z2V5).
T1 sequence (whole entry): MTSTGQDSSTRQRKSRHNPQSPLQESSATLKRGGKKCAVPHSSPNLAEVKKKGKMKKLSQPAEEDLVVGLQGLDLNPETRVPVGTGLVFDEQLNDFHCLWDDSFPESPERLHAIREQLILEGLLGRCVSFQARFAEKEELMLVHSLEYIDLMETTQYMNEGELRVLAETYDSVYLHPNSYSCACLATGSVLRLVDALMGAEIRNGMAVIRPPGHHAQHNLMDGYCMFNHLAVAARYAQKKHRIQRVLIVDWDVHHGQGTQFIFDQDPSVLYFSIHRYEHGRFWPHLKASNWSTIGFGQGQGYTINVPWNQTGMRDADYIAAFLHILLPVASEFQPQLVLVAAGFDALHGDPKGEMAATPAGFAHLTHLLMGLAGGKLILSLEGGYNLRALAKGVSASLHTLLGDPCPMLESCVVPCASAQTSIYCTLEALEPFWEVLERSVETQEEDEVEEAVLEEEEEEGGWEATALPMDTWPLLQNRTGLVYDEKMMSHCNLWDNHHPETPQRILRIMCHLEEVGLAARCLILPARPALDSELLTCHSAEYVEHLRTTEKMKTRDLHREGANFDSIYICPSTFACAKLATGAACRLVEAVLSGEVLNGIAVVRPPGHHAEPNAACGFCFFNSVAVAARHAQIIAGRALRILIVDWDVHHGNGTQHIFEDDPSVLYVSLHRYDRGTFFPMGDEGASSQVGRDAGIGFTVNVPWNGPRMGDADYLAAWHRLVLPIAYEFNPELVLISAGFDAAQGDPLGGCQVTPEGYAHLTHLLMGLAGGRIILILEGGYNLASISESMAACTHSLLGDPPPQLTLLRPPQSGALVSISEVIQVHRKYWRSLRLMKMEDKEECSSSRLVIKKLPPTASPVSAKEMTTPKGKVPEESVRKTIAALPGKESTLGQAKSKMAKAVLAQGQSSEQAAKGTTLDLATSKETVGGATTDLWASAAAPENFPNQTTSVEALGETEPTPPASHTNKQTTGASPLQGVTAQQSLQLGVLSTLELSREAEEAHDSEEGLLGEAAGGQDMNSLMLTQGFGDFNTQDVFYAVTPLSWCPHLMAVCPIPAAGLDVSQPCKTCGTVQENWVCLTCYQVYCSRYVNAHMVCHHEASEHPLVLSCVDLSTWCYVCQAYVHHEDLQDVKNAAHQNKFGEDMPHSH
Put plainly: Inhibition of HDAC6 in mouse HT-22 cells assessed as increase in acetylated histone H3 level at 20 to 500 nM after 24 hrs by Western blotting analysis. The data set is classed as cell-based. The note with it: dose 20-500 nM. (In general: A western blot detects proteins with antibodies after separation by electrophoresis.)

Data set [2] deals with N9. Put plainly: Immunomodulatory activity in mouse N9 microglial cells assessed as reduction in LPS-induced nitrite accumulation incubated for 24 hrs by Griess reagent based analysis. The note with it: dose 0.1-5 µM. It is filed as functional, cell-based. In general terms: Nitrite, measured by Griess reagent, commonly stands in for NO production.
The test system of data set [3] is N9. Put plainly: Immunomodulatory activity in mouse N9 microglial cells assessed as reduction in LPS-induced IL1beta level incubated for 24 hrs by colorimetric assay. The data set is classed as functional, cell-based. The note with it: dose 0.1-5 µM.
The subject of data set [4] is N9. Put plainly: Immunomodulatory activity in mouse N9 microglial cells assessed as reduction in LPS-induced iNOS expression incubated for 24 hrs by Western blot analysis. The data set is classed as functional, cell-based. The note with it: dose 0.1-5 µM.
Data set [5] can be described thus: Toxicity in mouse model of Alzheimer's disease assessed as drug tolerability at 0.3 to 3 mg/kg, ip measured after 7 days. It is filed as organism-based. Conditions: in vivo, 168 h, dose 0.3-3 mg/kg, time 7 day.
In data set [6] the test system is Mus musculus. Put plainly: Anti-alzheimer activity against amyloid beta (25 to 35) induced working memory deficit in mouse assessed as increase in spontaneous alternation performance at 0.3 mg/kg, ip administered for 7 days and measured on day 8 by Y-maze test. It is filed as functional, organism-based. The note with it: time 8.0 day.
For data set [7], the system named is Mus musculus. Put plainly: Anti-alzheimer activity against amyloid beta (25 to 35) induced working memory deficit in mouse assessed as increase in spontaneous alternation performance at 0.3 to 1 mg/kg, ip administered for 7 days and measured on day 8 by Y-maze test. It is filed as functional, organism-based. Conditions: dose 0.3-1 mg/kg, time 8.0 day.
Data set [8] relates to Mus musculus. Put plainly: Anti-alzheimer activity against amyloid beta (25 to 35) induced working memory deficit mouse assessed as step-through latency time to enter dark compartment at 0.1 to 0.3 mg/kg, ip administered for 7 days and measured on day 9 days by passive avoidance test. The data set is classed as functional, organism-based. The note with it: dose 0.1-0.3 mg/kg, time 9.0 day.

Data set [9] has as its system Mus musculus. Put plainly: Anti-alzheimer activity against amyloid beta (25 to 35) induced working memory deficit mouse assessed as step-through latency time to enter dark compartment at 1 mg/kg, ip administered for 7 days and measured on day 9 days by passive avoidance test. It is filed as functional, organism-based. The note with it: time 9.0 day.
Data set [10] relates to Mus musculus. Put plainly: Cognitive enhancing effect in mouse model of Alzheimer's disease at 1 mg/kg. The data set is classed as functional, organism-based.
For data set [11], the system named is Mus musculus. Put plainly: Neuroprotection against mouse model of Alzheimer's disease at 1 mg/kg. It is filed as functional, organism-based.
In data set [12] the target is T1, Protein deacetylase HDAC6 (Mus musculus). Put plainly: Inhibition of HDAC6 in mouse HT-22 cells assessed as increase in acetylated tubulin level at […] after 24 hrs by Western blotting analysis. It is filed as cell-based.

Activity calls are given as the source filed them. The rule behind the calls is not given here.

Regarding `COc1ccc2[nH]cc(CCN(Cc3ccc(C(=O)NO)cc3)C(=O)/C=C/c3ccc(O)c(OC)c3)c2c1`, the inhibition result in data set [1] is “inactive”. The Activity result in the data set on N9 [2] is “Dose-Dependent Effect”; in the data set with N9 [3], “Dose-Dependent Effect”; in the data set on N9 [4], “Dose-Dependent Effect”; in data set [5], “Non-Toxic”. The result with Mus musculus [6], in the data set on Mus musculus [7], in the data set with Mus musculus [8], in the data set on Mus musculus [10] and in the data set on Mus musculus [11] was Active. Also, the result with Mus musculus [9] was inactive.
Consider `COc1ccc2c(c1)c(CCNC(C)=O)cn2Cc1ccc(C(=O)NO)cc1`, for which the inhibition result in data set [12] was “Active”.
